Earlier results, collected in patent US10952975B2, “Compositions and methods for treatment of cancer” (priority 2019, dated 2021).
Read-outs that look alike come from different tables or passages of the source.

Key:
[1] = clinical studies
MAT2A [2] = target: T1, MAT2A (Homo sapiens, UniProt P31153); conditions: in vitro
LS174T cells = conditions: 36 h, 10 μM FIDAS-3
MAT2A [3] = target: T1, MAT2A; conditions: cell-free; [L-Met]=[ATP]=1 mM, [MAT2A]=10 μg/mL; 20 min preincubation, 30 min reaction; read-out: IC50, MAT2A-catalyzed SAM synthesis
[4] = patients with advanced solid tumors

T1 sequence (P31153 whole entry): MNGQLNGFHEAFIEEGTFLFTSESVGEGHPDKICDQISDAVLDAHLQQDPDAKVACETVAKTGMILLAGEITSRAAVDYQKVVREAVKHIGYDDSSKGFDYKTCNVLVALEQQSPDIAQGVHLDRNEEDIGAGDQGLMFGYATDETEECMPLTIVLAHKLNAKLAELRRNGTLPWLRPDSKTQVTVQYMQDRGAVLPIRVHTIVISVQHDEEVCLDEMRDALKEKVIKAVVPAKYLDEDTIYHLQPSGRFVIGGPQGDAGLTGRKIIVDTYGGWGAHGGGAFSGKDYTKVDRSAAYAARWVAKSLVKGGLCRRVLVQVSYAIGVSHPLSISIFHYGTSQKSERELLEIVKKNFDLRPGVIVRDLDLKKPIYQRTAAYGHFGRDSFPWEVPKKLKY

COc1ccc(/C=C\c2cc(OC)c(OC)c(OC)c2)cc1OP(=O)([O-])[O-].[Na+].[Na+] [CA-4P, Disodium CA-4-3-O-phosphate]
maximum tolerated dose [1]: 60-68 mg/m^2

Cc1ccc2c(=O)c3cccc(CC(=O)O)c3oc2c1C [DMXAA, 5,6-dimethylxanthenone-4-acetic acid]
time to arrest of tumor blood flow after administration (murine tumors): ≤ 30 min

CN(C)c1ccc(/C=C/c2c(F)cccc2F)cc1 [FIDAS-3]
competition against SAM for MAT2A binding (MAT2A [2]): effectively competes against SAM | decrease of SAH level (LS174T cells): 56% | decrease of SAM level (LS174T cells): 64% | IC50 (MAT2A [3]): 4.9 µM

COc1cc(/C=C\c2ccc(OC)c(OP(=O)(O)O)c2OP(=O)(O)O)cc(OC)c1OC [Oxi4503, Tetrasodium Combretastatin A-1 2′,3′-O-diphosphate]
dose at which a tumor response was seen [4]: 14 mg/m^2 | doses with maximum tumor perfusion reductions [4]: ≥ 11 mg/m^2 | maximum tolerated dose ([4]; escalation to 14 mg/m^2 was possible): 8.5 mg/m^2
